# Experimental data reported in PubChem BioAssay (NCI).
#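 Briefly, cells in 96-well plates were exposed to five compound concentrations for 48 h, and endpoints were estimated by linear interpolation. GI50: concentration for 50% inhibition of growth. At the TGI there is no net growth.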
# Key:
# Assay in all cases: DTP human tumour cell line panel, 48 h
# HOP-92 NSCLC = system: HOP-92 NSCLC
# NCI/ADR-RES ovarian = system: NCI/ADR-RES ovarian
# HOP-62 NSCLC = system: HOP-62 NSCLC
# MALME-3M melanoma = system: MALME-3M melanoma
# KM12 colon = system: KM12 colon
# 786-0 renal = system: 786-0 renal
# HL-60(TB) leukemia = system: HL-60(TB) leukemia
# SF-539 CNS = system: SF-539 CNS
# SW-620 colon = system: SW-620 colon
# SNB-19 CNS = system: SNB-19 CNS
SMILES,GI50 (HOP-92 NSCLC) [µM],TGI (HOP-92 NSCLC) [µM],GI50 (NCI/ADR-RES ovarian) [µM],TGI (NCI/ADR-RES ovarian) [µM],GI50 (HOP-62 NSCLC) [µM],TGI (HOP-62 NSCLC) [µM],GI50 (MALME-3M melanoma) [µM],TGI (MALME-3M melanoma) [µM],GI50 (KM12 colon) [µM],TGI (KM12 colon) [µM],GI50 (786-0 renal) [µM],TGI (786-0 renal) [µM],GI50 (HL-60(TB) leukemia) [µM],TGI (HL-60(TB) leukemia) [µM],GI50 (SF-539 CNS) [µM],TGI (SF-539 CNS) [µM],GI50 (SW-620 colon) [µM],TGI (SW-620 colon) [µM],GI50 (SNB-19 CNS) [µM],TGI (SNB-19 CNS) [µM]
CCN(CC)CCn1nc2c3c(cccc3c1=O)-c1ccccc1-2,3.11,24.9,2.19,45.1,2.18,15.9,1.67,7.37,2.84,> 50,2.44,48.8,1.8,9.22,2.78,11.7,1.89,> 50,2.63,> 50
CO[C@H]1/C=C/C=C/C=C/C[C@H](OC(=O)[C@@H](C)NC(=O)C2CCCCC2)[C@H](C)[C@@H](O)/C(C)=C\CCC2=CC(=O)C=C(NC(=O)C1)C2=O,0.162,1.98,4,> 50,0.125,0.68,0.113,0.801,0.131,10.1,0.177,1.32,0.167,0.839,0.128,0.519,0.179,3.63,0.106,0.563
NC(=S)c1cn(C2OC(CO)C(O)C2O)c2ncnc(N)c12 (stereo not drawn),0.154,,0.192,8.24,0.065,1.95,0.0279,0.125,0.0262,0.205,0.356,,0.18,26.7,0.27,1.55,0.105,0.592,0.411,13.7
O=C(O)c1ccccc1/C=C1/Nc2ccccc2C1=O,,> 100,,> 100,,> 100,,> 100,,> 100,,> 100,,> 100,,> 100,,> 100,,> 100
COc1ccc(C2C3=C(COC3=O)N(CCO)c3cc4c(cc32)CCC4)cc1OC (stereo not drawn),> 50,> 50,2.52,> 36.4,1.08,> 50,0.291,> 50,0.297,> 50,5.56,> 50,0.328,> 10.5,0.496,6.43,0.328,> 50,2.16,> 50
CCCCOc1nc2ccccc2cc1C1CNC(=O)c2ccccc2N1 (stereo not drawn),4.57,26.6,2.12,8.76,3.08,17.7,5.82,38.4,3.31,72.5,3.14,11.1,0.357,1.9,2.3,6.86,2.59,21.5,5.55,44.8
CCc1cc(Nc2nccc(-c3c(-c4ccc(OC)c(C(=O)Nc5c(F)cccc5F)c4)nc4ccccn34)n2)c(OC)cc1N1CCC(N2CCN(S(C)(=O)=O)CC2)CC1,1.14,> 80,> 100,> 100,> 100,> 100,> 100,> 100,> 100,> 100,> 100,> 100,> 100,> 100,> 100,> 100,> 100,> 100,> 56.6,> 100
O=C(Nc1ccc(I)cc1F)c1cc(F)ccc1O,0.169,0.504,0.401,> 27.7,1.77,6.46,0.315,1.53,2.21,6.23,2.19,6.67,0.382,1.93,0.444,7.07,0.777,> 34.7,0.406,> 100
CCOC(=O)CCC(NC(=O)c1ccc(Nc2nc3cc(N)cc(N)c3nc2-c2ccccc2)cc1)C(=O)OCC (stereo not drawn),10.8,29.7,35,> 79.1,> 44.1,> 63,8.1,15.8,> 52.9,> 100,> 42.3,> 60.9,9.62,50.7,27.3,> 100,45.6,> 100,> 46.4,> 100
C/C(=C\COc1ccc2ccc(=O)oc2c1)CCC(=O)C(C)(C)O,,64.5,,> 100,,> 100,,> 100,,41,,43.3,,45.7,,48.5,,38.9,,> 100
COc1cc2cc(Oc3ccc(NC(=O)Nc4cc(C(F)(F)F)cc(C(F)(F)F)c4)cc3)c(C)nc2cc1OCCN1CCCCC1,1.24,2.57,1.68,3.24,1.64,3.3,1.59,3.02,1.91,3.47,1.71,3.25,2.25,4.67,1.65,3.03,1.79,3.27,1.71,3.18
S=C1NC2=C(CCOc3c2ccc2ccccc32)C(c2ccc(Cl)cc2)N1 (stereo not drawn),30.5,> 100,31.9,> 100,70.8,> 100,23.8,73.8,47.5,> 100,50.5,> 100,32.7,> 100,20.8,56.9,43.7,> 100,56.4,> 100
